For eight compounds, IC50 results are on record in patent publication EP3436445B1, “HISTONE DEMETHYLASE INHIBITORS” (Celgene Quanticel Research, Inc., priority 2016, dated 2017).

One assay concerns the target T1, FBXL11 (Homo sapiens, UniProt Q9Y2K7).
T1 construct: purchased BPS Bioscience 50102
T1 sequence (Q9Y2K7 1-1162): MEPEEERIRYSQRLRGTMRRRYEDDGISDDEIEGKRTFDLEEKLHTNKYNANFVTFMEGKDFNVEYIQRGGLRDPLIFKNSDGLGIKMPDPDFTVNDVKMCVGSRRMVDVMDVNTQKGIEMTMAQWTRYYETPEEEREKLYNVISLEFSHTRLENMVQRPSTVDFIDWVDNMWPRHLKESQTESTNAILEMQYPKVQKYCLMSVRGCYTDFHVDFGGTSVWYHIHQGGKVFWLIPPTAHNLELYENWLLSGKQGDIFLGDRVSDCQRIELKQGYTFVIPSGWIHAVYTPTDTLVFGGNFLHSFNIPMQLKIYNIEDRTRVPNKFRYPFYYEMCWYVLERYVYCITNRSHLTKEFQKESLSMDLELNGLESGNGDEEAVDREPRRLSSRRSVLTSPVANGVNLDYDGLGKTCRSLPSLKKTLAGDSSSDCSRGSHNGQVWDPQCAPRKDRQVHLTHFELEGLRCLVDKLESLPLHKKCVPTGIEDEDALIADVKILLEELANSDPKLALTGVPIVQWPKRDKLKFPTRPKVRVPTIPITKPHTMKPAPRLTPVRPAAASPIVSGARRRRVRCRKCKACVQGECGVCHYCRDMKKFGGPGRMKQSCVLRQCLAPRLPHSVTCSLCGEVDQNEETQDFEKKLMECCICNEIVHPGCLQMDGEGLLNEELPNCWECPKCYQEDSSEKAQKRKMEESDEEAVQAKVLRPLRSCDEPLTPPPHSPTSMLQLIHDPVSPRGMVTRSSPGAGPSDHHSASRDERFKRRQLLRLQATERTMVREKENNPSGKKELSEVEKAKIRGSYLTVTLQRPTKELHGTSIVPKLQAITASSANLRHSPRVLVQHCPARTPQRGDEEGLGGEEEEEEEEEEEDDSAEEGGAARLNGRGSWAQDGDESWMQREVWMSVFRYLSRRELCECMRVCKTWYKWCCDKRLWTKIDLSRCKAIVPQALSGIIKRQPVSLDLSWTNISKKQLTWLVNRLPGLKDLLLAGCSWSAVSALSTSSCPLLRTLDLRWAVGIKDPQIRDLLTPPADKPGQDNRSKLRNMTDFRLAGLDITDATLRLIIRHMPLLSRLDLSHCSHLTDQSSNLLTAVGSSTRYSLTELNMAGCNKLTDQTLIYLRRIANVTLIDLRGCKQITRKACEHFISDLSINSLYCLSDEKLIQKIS
Description: FBXL11 in vitro enzyme inhibition assay (AlphaScreen). The class given is biochemical. The conditions noted are these: Table 3; 0.15 nM FBXL11, H3K36me2-biotin labeled peptide. An excerpt:
(§1) This assay determines the ability of a test compound to inhibit FBXL11, FBXL10, and PHF8 demethylase activity. Baculovirus expressed FBXL11 (GenBank Accession #NM_012308, AA1-1162) was purchased from BPS Bioscience (Cat#50102). Baculovirus expressed FBXL10 (GenBank Accession #NM_032590, AA 1-650) was purchased from BPS Bioscience (Cat #50120). Baculovirus expressed PHF8 (GenBank Accession NP_055922.1) was purchased from Active Motif (Cat#31435).
The ability of test compounds to inhibit the activity of FBXL11 was determined in 384-well plate format under the following reaction conditions: 0.15 nM FBXL11, 30 nM H3K36me2-biotin labeled peptide (Anaspec cat # 64442), 0.2 µM alpha-ketoglutaric acid in assay buffer of 50 mM HEPES, pH7.3, 0.005% Brij35, 0.5 mM TCEP, 0.2 mg/ml BSA, 50 µM sodium L-ascorbate, 5 µM ammonium iron(II) sulfate. Reaction product is determined quantitatively by AlphaScreen detection after the addition of detection reagents anti-H3K36me1 antibody, AlphaScreen® Streptavidin-coated Donor beads, and AlphaScreen® Protein A Acceptor beads in 50 mM HEPES, pH7.3, 10 mM NaCl, 0.005% Brij35, 5 mM EDTA, 2 mg/ml BSA to final 10 µg/ml beads.
The assay reaction was initiated by the following: 3 µl of the mixture of 90 nM H3K36me2-biotin labeled peptide and 0.6 µM alpha-ketoglutaric acid with 3 µl of 11-point serial diluted inhibitor in 3% DMSO are added to each well of 384 well Proxiplate (Perkin Elmer), followed by the addition of 3 µl of 0.45 nM FBXL11 to initiate the reaction. The reaction mixture is incubated at room temperature for 1 hour, and terminated by the addition of 3 µl of appropriate dilution of anti H3K36me1 antibody in 50 mM HEPES, pH7.3, 10 mM NaCl, 0.005% Brij35, 5 mM EDTA, 2 mg/ml BSA. Plates will then incubated at room temperature for 40 minutes, followed by addition of 3 µl of 50 µg/ml AlphaScreen® Streptavidin-coated Donor beads and AlphaScreen® Protein A Acceptor beads in 50 mM HEPES, pH7.3, 10 mM NaCl, 0.005% Brij35, 5 mM EDTA, 2 mg/ml BSA. Plates will then be read by EnVision Multilabel Reader in AlphaScreen mode after minimum 2 hour incubation at room temperature. The AlphaScreen signal for each well is used to determine inhibition constant (IC50).
A general note: Bead proximity is the source of the signal in Alpha formats.

A further assay deals with T2, PHF8 (Homo sapiens, UniProt Q9UPP1).
T2 construct: purchased Active Motif 31435
T2 sequence (Q9UPP1 37-1060): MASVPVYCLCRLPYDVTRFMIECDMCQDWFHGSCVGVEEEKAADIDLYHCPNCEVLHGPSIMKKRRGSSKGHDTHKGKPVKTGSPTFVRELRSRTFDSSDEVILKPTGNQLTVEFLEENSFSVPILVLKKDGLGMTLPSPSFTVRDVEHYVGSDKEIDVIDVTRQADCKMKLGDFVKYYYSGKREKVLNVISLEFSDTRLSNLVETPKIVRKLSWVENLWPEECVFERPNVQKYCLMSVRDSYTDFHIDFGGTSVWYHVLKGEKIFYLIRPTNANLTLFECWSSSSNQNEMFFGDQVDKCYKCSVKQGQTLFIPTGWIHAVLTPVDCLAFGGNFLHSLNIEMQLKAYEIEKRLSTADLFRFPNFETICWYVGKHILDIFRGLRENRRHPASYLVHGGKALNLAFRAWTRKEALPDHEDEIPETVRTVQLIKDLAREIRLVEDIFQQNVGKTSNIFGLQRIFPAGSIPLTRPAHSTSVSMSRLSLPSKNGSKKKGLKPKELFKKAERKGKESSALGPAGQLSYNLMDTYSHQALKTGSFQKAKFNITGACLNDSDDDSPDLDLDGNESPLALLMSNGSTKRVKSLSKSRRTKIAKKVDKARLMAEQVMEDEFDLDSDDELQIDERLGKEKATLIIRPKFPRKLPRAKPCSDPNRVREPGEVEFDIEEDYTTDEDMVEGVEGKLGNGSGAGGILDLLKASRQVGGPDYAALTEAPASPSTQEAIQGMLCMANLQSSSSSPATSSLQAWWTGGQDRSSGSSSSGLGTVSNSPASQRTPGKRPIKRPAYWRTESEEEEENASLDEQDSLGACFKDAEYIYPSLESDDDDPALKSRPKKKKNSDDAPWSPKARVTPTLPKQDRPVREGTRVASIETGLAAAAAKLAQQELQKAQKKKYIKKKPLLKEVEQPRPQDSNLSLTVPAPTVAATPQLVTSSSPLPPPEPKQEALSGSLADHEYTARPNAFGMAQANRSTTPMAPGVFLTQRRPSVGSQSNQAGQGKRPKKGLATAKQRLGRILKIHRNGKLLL
Description: PHF8 in vitro enzyme inhibition assay (TR-FRET). The format is biochemical. The conditions noted are these: Table 3; 3 nM PHF8, H3K9me1-biotin labeled peptide.
Description: as §1
The ability of test compounds to inhibit the activity of PHF8 was determined in 384-well plate format under the following reaction conditions: 3 nM PHF8, 200 nM H3K9me1-biotin labeled peptide (Anaspec cat #64358), 0.5 µM alpha-ketoglutaric acid in assay buffer of 50 mM HEPES, pH7.3, 0.005% Brij35, 0.5 mM TCEP, 0.2 mg/ml BSA, 50 µM sodium L-ascorbate, and 5 µM ammonium iron(II) sulfate. Reaction product was determined quantitatively by TR-FRET after the addition of detection reagent Phycolink Streptavidin-allophycocyanin (Prozyme) and Europium-anti-unmodified-histone H3 lysine 9/lysine27 (H3K9/K27) antibody (PerkinElmer) in the presence of 5 mM EDTA in LANCE detection buffer (PerkinElmer) at a final concentration of 25 nM and 0.5 nM, respectively.
The assay reaction was initiated by the following: 2 µl of the mixture of 600 nM H3K9me1-biotin labeled peptide and 1.5 µM alpha-ketoglutaric acid with 2 µl of 11-point serial diluted inhibitor in 3% DMSO were added to each well of the plate, followed by the addition of 2 µl of 9 nM PHF8 to initiate the reaction. The reaction mixture was incubated at room temperature for 15 minutes, and terminated by the addition of 6 µl of 5 mM EDTA in LANCE detection buffer containing 50 nM Phycolink Streptavidin-allophycocyanin and 1 nM Europium-anti-unmodified H3K9/K27 antibody. Plates were read by EnVision Multilabel Reader in TR-FRET mode (excitation at 320 nm, emission at 615 nm and 665 nm) after 1 hour incubation at room temperature. A ratio was calculated (665/615) for each well and fitted to determine inhibition constant (IC50).
A general note: TR-FRET usually uses a lanthanide donor and a delayed reading to cut background.

For the compound `c1ccc(Cn2cnc(-c3cc4[nH]nnc4cn3)c2)cc1` [Example 44, 1-benzyl-4-{1H-[1,2,3]triazolo[4,5-c]pyridin-6-yl}-1H-imidazole], the IC50 (in general, the midpoint of a concentration-inhibition curve) against FBXL11 was no more than 100 nM; at PHF8 it was 100 to 1000 nM.

On to `Clc1ccccc1Cn1cnc(-c2cc3[nH]nnc3cn2)c1` [Example 45, 1-[(2-chlorophenyl)methyl]-4-{1H-[1,2,3]triazolo[4,5-c]pyridin-6-yl}-1H-imidazole], for which the figures for the IC50 at FBXL11 and against PHF8 were no more than 100 nM and 1000 to 10000 nM, respectively.

For `Clc1cccc(Cn2cnc(-c3cc4[nH]nnc4cn3)c2)c1` [Example 46, 1-[(3-chlorophenyl)methyl]-4-{1H-[1,2,3]triazolo[4,5-c]pyridin-6-yl}-1H-imidazole], the results for the IC50 against FBXL11 and at PHF8 were no more than 100 nM and 1000 to 10000 nM, respectively.

`Clc1ccc(Cn2cnc(-c3cc4[nH]nnc4cn3)c2)cc1` [Example 47, 1-[(4-chlorophenyl)methyl]-4-{1H-[1,2,3]triazolo[4,5-c]pyridin-6-yl}-1H-imidazole]: the IC50 at FBXL11 is no more than 100 nM; against PHF8, 1000 to 10000 nM.

For the compound `Clc1ccc(Cn2cnc(-c3cc4[nH]nnc4cn3)c2)cc1Cl` [Example 48, 1-[(3,4-dichlorophenyl)methyl]-4-{1H-[1,2,3]triazolo[4,5-c]pyridin-6-yl}-1H-imidazole], the IC50 on FBXL11 is no more than 100 nM; on PHF8, 1000 to 10000 nM.

Consider `Clc1ccc(-n2cnc(-c3cc4[nH]nnc4cn3)c2)cc1` [Example 49, 1-(4-chlorophenyl)-4-{1H-[1,2,3]triazolo[4,5-c]pyridin-6-yl}-1H-imidazole], for which the IC50 on FBXL11 was no more than 100 nM; against PHF8, 1000 to 10000 nM.

With `Clc1ccccc1-n1cnc(-c2cc3[nH]nnc3cn2)c1` [Example 50, 1-(2-chlorophenyl)-4-{1H-[1,2,3]triazolo[4,5-c]pyridin-6-yl}-1H-imidazole], the IC50 on FBXL11 was no more than 100 nM; against PHF8, 1000 to 10000 nM.

Consider `Clc1cccc(-n2cnc(-c3cc4[nH]nnc4cn3)c2)c1` [Example 51, 1-(3-chlorophenyl)-4-{1H-[1,2,3]triazolo[4,5-c]pyridin-6-yl}-1H-imidazole], for which the results for the IC50 against FBXL11 and on PHF8 were 100 to 1000 nM and 1000 to 10000 nM, respectively.
